Data taken from article PMC6681416, “Novel Derivatives of Deoxycholic Acid Bearing Linear Aliphatic Diamine and Aminoalcohol Moieties and their Cyclic Analogs at the C3 Position: Synthesis and Evaluation of Their In Vitro Antitumor Potential” (Molecules, 2019).
Read-outs that look alike come from different tables or passages of the source.

What was measured:
HepG2 cells [1] = tested on: HepG2 cells; set-up: method as in PMID 28688958, PMID 26037611, PMID 28887170; details: MTT, 24 h; values marked by asterisk; ref [21],[22],[23]; read-out: IC50 HepG2 (liver); cited from earlier work
RAW264.7 macrophages = assay: MTT cytotoxicity assay, RAW264.7; assay type: cell-based, murine; details: for IC50: Mus musculus, RAW264.7, MTT, 24 h, read-out: IC50 RAW264.7 (macrophage); for Selectivity index RAW264: ratio IC50 hFF3 / IC50 RAW264.7
Description: (§1) According to our previous data and data published by other research groups, chemical transformations of bile acids can greatly improve their antitumor potential. Thus, as the first step of evaluation of the biological activities of our novel DCA derivatives we assessed their effects on tumor cell viability. The cytotoxicity of the compounds was investigated with respect to a panel of cultured cell lines, including human duodenal HuTu-80, hepatocellular HepG2, cervical KB-3-1 and lung A549 carcinomas as well as murine macrophage RAW264.7 and non-transformed human fibroblasts hFF3 by MTT assay.
(§2) Human duodenal carcinoma HuTu-80 cells, human hepatocellular carcinoma HepG2 cells, human cervical carcinoma KB-3-1 cells, human lung carcinoma A549 cells were obtained from the Russian Cell Culture Collection (Institute of Cytology, RAS, St. Petersburg, Russia). Non-transformed human fibroblasts hFF3 were kindly provided by Dr. Olga Koval (Institute of Chemical Biology and Fundamental Medicine, SB RAS, Novosibirsk, Russia). RAW264.7 macrophages were kindly provided by Prof. Dr. Dmitry Kuprash (Engelhardt Institute of Molecular Biology, RAS, Moscow, Russia). The cells were cultured in DMEM (Sigma-Aldrich Inc., St. Louis, MO, USA) supplemented with 10% (v/v) heat-inactivated fetal bovine serum (FBS) (BioloT, St. Petersburg, Russia), 100 U/mL penicillin (ICN Biomedicals Inc., Costa Mesa, CA, USA), 100 µg/mL streptomycin and 0.25 µg/mL amphotericin; additionally, in the case of RAW264.7 cells, concentration of glucose in the medium was increased up to 4.5 mg/mL. The cells were incubated at 37 °C in 5% CO2 and 95% air (hereafter referred to as standard conditions). DCA derivatives were dissolved in DMSO to yield stock solutions of 10 mmol/L and stored at −20 °C prior to use.
(§3) Cells were seeded in triplicate in 96-well plates at a density of 5 × 10^3 (HuTu-80, HepG2, KB-3-1, hFF3), 10^4 (A549) or 5 × 10^4 (RAW264.7) cells per well. Cells were incubated under standard conditions for 24 h and then they were treated with varying doses of investigated derivatives for subsequent 24 h. Then 10 µL of MTT solution (5 mg/mL) were added to each wells and cells were incubated for an additional 2 h under standard conditions. The crystals of formazan forming within live cells were solubilized with DMSO and the absorbance was measured in a Multiscan RC plate reader (Thermo LabSystems, Helsinki, Finland) at a test and reference wavelengths of 570 nm and 620 nm, respectively. […] To perform SAR analysis, hierarchical clustering of compounds based on their IC50 values was fulfilled with Euclidean distance by using the Morpheus tool (https://software.broadinstitute.org/morpheus/), a platform designed for visualization and analysis of data in a matrix format. Heatmap, containing compounds’ SI values, were constructed by using the Excel 2010 software (Microsoft, Redmond, WA, USA). In order to reveal whether ROS participate in the induction of cell death by compound 9, HuTu-80 cells cultured in 96-well plate were pretreated by NAC at 2 mM for 1 h. Thereafter, the medium was replaced by fresh medium with compound 9 at 8 µM and the cells were incubated with subsequent 24 h under standard conditions. After this time period, the curves of cytotoxicity of compound 9 in the presence or absence of NAC were compared.

[2] = tested on: NO synthesis by IFNγ-activated RAW264.7 cells; assay: Inhibition of NO production by stimulated macrophages (Griess); assay type: cell-based, murine; details: Mus musculus, RAW264.7, 24 h, read-out: IC50NO
Procedure: RAW264.7 cells were seeded in triplicate in 96-well plates at a density of 5 × 10^4 cells/well and incubated under standard conditions for 24 h. The cells were treated with 20 ng/mL of murine recombinant IFNγ (GIBCO, Gaithersburg, MD, USA), with or without (control) compounds at various concentrations for 24 h. The level of NO production was evaluated by determining the nitrite concentration in culture medium with a Griess Reagent System (Promega, Madison, WI, USA). The IC50^NO value was calculated as the derivative concentration required to decrease NO production to 50% of the non-treated control.

[3] = tested on: non-transformed human fibroblasts hFF3; set-up: method as in PMID 28688958, PMID 26037611, PMID 28887170; details: MTT, 24 h; values marked by asterisk; ref [21],[22],[23]; read-out: IC50 hFF3 (fibroblast); cited from earlier work
HuTu-80 cells [4] = tested on: HuTu-80 cells; set-up: method as in PMID 28688958, PMID 26037611, PMID 28887170; details: MTT, 24 h; values marked by asterisk; ref [21],[22],[23]; read-out: IC50 HuTu-80 (duodenum); cited from earlier work
KB-3-1 cells [5] = assay: MTT cytotoxicity assay, KB-3-1; assay type: cell-based, human; details: for Selectivity index KB-3-1: ratio IC50 hFF3 / IC50 KB-3-1; for IC50: Homo sapiens, KB 3-1, MTT, 24 h, read-out: IC50 KB3-1 (cervix)
Description: as §1, §2, §3

HepG2 cells [6] = assay: MTT cytotoxicity assay, HepG2; assay type: cell-based, human; details: for Selectivity index HepG-2: ratio IC50 hFF3 / IC50 HepG2; for IC50: Homo sapiens, HepG2, MTT, 24 h, read-out: IC50 HepG2 (liver)
Description: as §1, §2, §3

[7] = tested on: panel of cultured cell lines (HuTu-80, HepG2, KB-3-1, A549, RAW264.7, hFF3); set-up: method as in PMID 28688958, PMID 26037611, PMID 28887170; details: MTT, 24 h; summary of Table 1 values marked by asterisk; ref [21],[22],[23]; read-out: IC50, range or lowest value over tested cell lines; cited from earlier work
HuTu-80 cells [8] = assay: cells; assay type: cell-based; details: for Selectivity index HuTu-80: ratio IC50 hFF3 / IC50 HuTu-80; for IC50: Homo sapiens, HuTu80, MTT, 24 h, read-out: IC50 HuTu-80 (duodenum)
Description: as §1, §2, §3

A549 cells [9] = assay: MTT cytotoxicity assay, A549; assay type: cell-based, human; details: for Selectivity index A549: ratio IC50 hFF3 / IC50 A549; for IC50: Homo sapiens, A549, MTT, 24 h, read-out: IC50 A549 (lung)
Description: as §1, §2, §3

A549 cells [10] = tested on: A549 cells; set-up: method as in PMID 28688958, PMID 26037611, PMID 28887170; details: MTT, 24 h; values marked by asterisk; ref [21],[22],[23]; read-out: IC50 A549 (lung); cited from earlier work
KB-3-1 cells [11] = tested on: KB-3-1 cells; set-up: method as in PMID 28688958, PMID 26037611, PMID 28887170; details: MTT, 24 h; values marked by asterisk; ref [21],[22],[23]; read-out: IC50 KB3-1 (cervix); cited from earlier work
[12] = tested on: panel of cultured cell lines (HuTu-80, HepG2, KB-3-1, A549, RAW264.7, hFF3); assay: MTT cytotoxicity, range over the panel of tested cell lines; assay type: cell-based; details: 24 h, summary of Table 1 (for 2–10 partly from ref [21])
Description: as §1
Cells were seeded in triplicate in 96-well plates at a density of 5 × 10^3 (HuTu-80, HepG2, KB-3-1, hFF3), 10^4 (A549) or 5 × 10^4 (RAW264.7) cells per well. Cells were incubated under standard conditions for 24 h and then they were treated with varying doses of investigated derivatives for subsequent 24 h. Then 10 µL of MTT solution (5 mg/mL) were added to each wells and cells were incubated for an additional 2 h under standard conditions. The crystals of formazan forming within live cells were solubilized with DMSO and the absorbance was measured in a Multiscan RC plate reader (Thermo LabSystems, Helsinki, Finland) at a test and reference wavelengths of 570 nm and 620 nm, respectively. […]

[13] = tested on: non-transformed human fibroblasts hFF3; assay: MTT cytotoxicity assay, hFF3; assay type: cell-based; details: HFF-3, 24 h, read-out: IC50 hFF3 (fibroblast)
Description: as §1
as §2, with “DCA derivatives were dissolved in DMSO to yield stock solutions of 10 mmol/L and stored at −20 °C prior to use.” left out
Cells were seeded in triplicate in 96-well plates at a density of 5 × 10^3 (HuTu-80, HepG2, KB-3-1, hFF3), 10^4 (A549) or 5 × 10^4 (RAW264.7) cells per well. […] The crystals of formazan forming within live cells were solubilized with DMSO and the absorbance was measured in a Multiscan RC plate reader (Thermo LabSystems, Helsinki, Finland) at a test and reference wavelengths of 570 nm and 620 nm, respectively. […]

[14] = Solubility in cell culture medium; assay type: physicochemical; details: maximal tested concentration limited by 50 µM

Row | SMILES | IC50 (HepG2 cells [1]) | IC50 (RAW264.7 macrophages) | Selectivity index RAW264 (RAW264.7 macrophages) | IC50 [2] | IC50 [3] | IC50 (HuTu-80 cells [4]) | Selectivity index KB-3-1 (KB-3-1 cells [5]) | Selectivity index HepG-2 (HepG2 cells [6]) | IC50 [7] | Selectivity index HuTu-80 (HuTu-80 cells [8]) | Selectivity index A549 (A549 cells [9]) | IC50 (A549 cells [10]) | IC50 (KB-3-1 cells [11]) | IC50 (KB-3-1 cells [5]) | IC50 (HepG2 cells [6]) | IC50 (HuTu-80 cells [8]) | IC50 [12] | IC50 (A549 cells [9]) | IC50 [13] | solubility in cell culture medium [14]
1 | CCN(CC)CCCNC[C@]1(O)CC[C@]2(C)C3CC(=O)[C@@]4(C)C(CC[C@@H]4[C@H](C)CCC(=O)OC)[C@@H]3CC[C@@H]2C1 (stereo partly drawn) [Compound 6] | 3.7 ± 0.17 µM | 6.7 ± 0.5 µM | 0.9 | > 10 µM | 6.2 ± 0.4 µM | 1000 ± 600 nM | 0.9 | 1.7 | 1 to 6.8 µM | 6.2 | 0.9 | 6.8 ± 0.3 µM | 6.7 ± 0.6 µM |  |  |  |  |  |  | 
2 | COC(=O)CC[C@@H](C)[C@H]1CC[C@H]2[C@@H]3CC[C@@H]4CC(O)(CNCCO)CC[C@]4(C)[C@H]3CC(=O)[C@]12C (stereo partly drawn) [Compound 8, Methyl 3-hydroxy-3-((2-hydroxyethylamino)methyl)-12-oxo-5β-cholan-24-oate] |  | 23.4 ± 1.2 µM | 1.5 | > 10 µM |  |  | 1.9 | 6 |  | 7.9 | 1.2 |  |  | 17.7 ± 2.8 µM | 5.8 ± 1.3 µM | 4.4 ± 0.34 µM | 4.4 to 34.8 µM | 29.6 ± 2.5 µM | 34.8 ± 1 µM | 
3 | COC(=O)CC[C@@H](C)[C@H]1CC[C@H]2[C@@H]3CC[C@@H]4CC(O)(CN5CCOCC5)CC[C@]4(C)[C@H]3CC(=O)[C@]12C (stereo partly drawn) [Compound 10, Methyl 3-hydroxy-3-(morpholinomethyl)-12-oxo-5β-cholan-24-oate] |  | > 50 µM | 1 | > 10 µM |  |  | 5.9 | 6.6 |  | 5 | 1 |  |  | 8.4 ± 0.5 µM | 7.5 ± 1.2 µM | 10 ± 0.3 µM |  | > 50 µM | > 50 µM | poorly soluble
